Source: patent publication US7332200B1, “Permeabilizing biofilms” (The General Hospital Corporation, priority 1999, dated 2008)

Tested on: A. viscosus in biofilms
Assay: Phototoxicity (bacterial killing, colony counts) of methylene blue on A. viscosus biofilms with red light, with or without a stress wave
Format: cell-based
Description: The biofilms were grown on enamel surfaces as described in Example 1. Biofilms were incubated with methylene blue for 1 or 5 minutes and exposed to stress waves (one pulse), after which they were exposed to 666 nm red light with a fluence of 15 J/cm^2 at an irradiance of 50 mW/cm^2. In control samples, biofilms were treated only with methylene blue, or were treated with methylene blue and exposed to red light, but without stress waves. An argon ion laser with an emission of 514.5. nm was used to pump a dye laser. The laser light was coupled into a 1.0 mm quartz fiber and appropriate spot sizes were created with an objective lens.
After illumination, adherent bacteria from the samples as treated above were scraped from the enamel surfaces with a sterile blade and dispersed in trypticase soy broth. Serial dilutions were prepared, and 100 μl aliquots were spread over the surfaces of blood agar plates. Survival fractions from each biofilm were calculated by counting the colonies on the plates and dividing by the number of colonies from dark controls incubated with the drug and kept at room temperature for periods equal to irradiation time. Other controls were: 1) biofilms untreated with methylene blue, light, or stress waves; 2) biofilms exposed only to a stress wave; 3) biofilms exposed to light without methylene blue; and 4) biofilms exposed to light after incubation with methylene blue.

CN(C)c1ccc2nc3ccc(=[N+](C)C)cc-3sc2c1 [methylene blue]
bacteria associated with biofilms killed (five-minute incubation with 50 μg/ml methylene blue, red light, no stress wave): 57%
bacteria associated with biofilms killed (five-minute incubation with 50 μg/ml methylene blue, stress wave (one pulse) and 666 nm red light 15 J/cm^2): 99%
bacteria associated with biofilms killed (one-minute incubation with 50 μg/ml methylene blue, red light, no stress wave): 34%
bacteria associated with biofilms killed (one-minute incubation with 50 μg/ml methylene blue, stress wave (one pulse) and red light): 96.5%
